Data published in PubChem BioAssay AID334 (DTP/NCI, 2004).
Where “and” joins values, the source holds several entries; their conditions need not be identical. Equal entries are not always repeated. Inconclusive results and toxic doses are left out.

Test system: CD2F1 mice, intracerebral P388 leukemia, median survival T/C%
Experiment: NCI In Vivo Anticancer Drug Screen. Data for tumor model P388 Leukemia (intracerebral) in CD2F1 (CDF1) mice
Conditions: endpoint: median survival time, higher = longer survival
Protocol: The antitumor activity of compounds was measured in mice bearing transplantable tumors. Survival or tumor size were measured and the results are expressed as the measurement made in the treated group (T) divided by the measurement made in the vehicle treated control group (C). The tumor model used in this assay is P388 Leukemia (intracerebral) in CD2F1 (CDF1) mice

[1] = dose: 32.0 mg/kg/injection, schedule: Q01DX009 (ip), vehicle: Klucel (hydroxypropylcellulose) (HPC)
[2] = dose: 64.0 mg/kg/injection, schedule: Q01DX009 (ip), vehicle: Klucel (hydroxypropylcellulose) (HPC)
[3] = dose: 128.0 mg/kg/injection, schedule: Q01DX009 (ip), vehicle: Klucel (hydroxypropylcellulose) (HPC)
[4] = dose: 256.0 mg/kg/injection, schedule: Q01DX009 (ip), vehicle: Klucel (hydroxypropylcellulose) (HPC)
[5] = dose: 512.0 mg/kg/injection, schedule: Q01DX009 (ip), vehicle: Klucel (hydroxypropylcellulose) (HPC)

Structure (SMILES): O=C1NC2(CCCCC2)C(=O)N1CCN(CCCl)CCCl
- T/C (dose: 1.25 mg/kg/injection, schedule: Q01DX005 (iv), vehicle: clinical formulation): 112 % of control
- T/C (dose: 1.25 mg/kg/injection, schedule: Q01DX009 (ip), vehicle: clinical formulation): 103 % of control
- T/C (dose: 1.25 mg/kg/injection, schedule: Q01DX009 (ip), vehicle: saline with Tween-80): 98 % of control
- T/C (dose: 1.5 mg/kg/injection, schedule: Q01DX009 (ip), vehicle: saline): 107 % of control
- T/C (dose: 2.5 mg/kg/injection, schedule: Q01DX005 (iv), vehicle: clinical formulation): 106 % of control
- T/C (dose: 2.5 mg/kg/injection, schedule: Q01DX009 (ip), vehicle: clinical formulation): 101 % of control
- T/C (dose: 2.5 mg/kg/injection, schedule: Q01DX009 (ip), vehicle: saline with Tween-80): 110 % of control
- T/C (dose: 5.0 mg/kg/injection, schedule: Q01DX005 (iv), vehicle: clinical formulation): 160 % of control
- T/C (dose: 5.0 mg/kg/injection, schedule: Q01DX009 (ip), vehicle: clinical formulation): 103 % of control
- T/C (dose: 5.0 mg/kg/injection, schedule: Q01DX009 (ip), vehicle: saline with Tween-80): 112 % of control
- T/C (dose: 6.0 mg/kg/injection, schedule: Q01DX009 (ip), vehicle: saline): 117 % of control
- T/C (dose: 10.0 mg/kg/injection, schedule: Q01DX009 (ip), vehicle: saline with Tween-80): 124 % of control
- T/C (dose: 20.0 mg/kg/injection, schedule: Q01DX009 (ip), vehicle: saline with Tween-80): 103 % of control

Structure (SMILES): CCN(CC)CCCC(C)Nc1c2ccc(Cl)cc2nc2ccc(OC)cc12 (stereo unspecified)
- T/C (dose: 8.0 mg/kg/injection, schedule: Q01DX009 (ip), vehicle: suspension in saline): 96 % of control
- T/C (dose: 16.0 mg/kg/injection, schedule: Q01DX009 (ip), vehicle: suspension in saline): 96 % of control
- T/C (dose: 32.0 mg/kg/injection, schedule: Q01DX009 (ip), vehicle: suspension in saline): 100 % of control
- T/C (dose: 64.0 mg/kg/injection, schedule: Q01DX009 (ip), vehicle: suspension in saline): 88 % of control

Structure (SMILES): C[C@]12C=CC(=O)C=C1CC[C@@H]1[C@@H]2C(=O)C[C@@]2(C)[C@H]1CC[C@]2(O)C(=O)CO
- T/C (dose: 8.0 mg/kg/injection, schedule: Q01DX009 (ip), vehicle: Klucel (hydroxypropylcellulose) (HPC)): 95 % of control and 99 % of control
- T/C (dose: 16.0 mg/kg/injection, schedule: Q01DX009 (ip), vehicle: Klucel (hydroxypropylcellulose) (HPC)): 100 % of control and 104 % of control
- T/C [1]: 98 % of control and 102 % of control
- T/C [2]: 99 % of control and 104 % of control
- T/C [3]: 95 % of control and 102 % of control
- T/C [4]: 102 % of control and 104 % of control
- T/C [5]: 95 % of control and 99 % of control

Structure (SMILES): CN1CC[C@]23c4c5ccc(O)c4O[C@H]2C(=O)CC[C@H]3[C@H]1C5
- T/C (dose: 3.12 mg/kg/injection, schedule: Q01DX005 (iv), vehicle: saline): 106 % of control
- T/C (dose: 6.25 mg/kg/injection, schedule: Q01DX005 (iv), vehicle: saline): 104 % of control
- T/C (dose: 12.5 mg/kg/injection, schedule: Q01DX005 (iv), vehicle: saline): 95 % of control

Structure (SMILES): O=C1N(Cl)C(=O)C(c2ccc(Cl)cc2)(c2ccc(Cl)cc2)N1Cl
- T/C (dose: 50.0 mg/kg/injection, schedule: Q01DX009 (ip), vehicle: saline with Tween-80): 94 % of control
- T/C (dose: 100.0 mg/kg/injection, schedule: Q01DX009 (ip), vehicle: saline with Tween-80): 105 % of control
- T/C (dose: 200.0 mg/kg/injection, schedule: Q01DX009 (ip), vehicle: saline with Tween-80): 94 % of control

Structure (SMILES): COCC(O)Cn1ccnc1[N+](=O)[O-] (stereo unspecified)
- T/C [1]: 113 % of control
- T/C [2]: 102 % of control
- T/C [3]: 96 % of control
- T/C [4]: 102 % of control
- T/C [5]: 102 % of control

Structure (SMILES): CC(=O)NNC(=O)c1ccccn1
- T/C (dose: 100.0 mg/kg/injection, schedule: Q01DX005 (ip), vehicle: Klucel (hydroxypropylcellulose) (HPC)): 116 % of control and 100 % of control
- T/C (dose: 200.0 mg/kg/injection, schedule: Q01DX005 (ip), vehicle: Klucel (hydroxypropylcellulose) (HPC)): 113 % of control and 100 % of control

Structure (SMILES): C[n+]1c2ccccc2nc2c(N)cc(N)cc21
- T/C (dose: 4.0 mg/kg/injection, schedule: Q01DX005 (ip), vehicle: suspension in saline): 114 % of control and 97 % of control
- T/C (dose: 8.0 mg/kg/injection, schedule: Q01DX005 (ip), vehicle: suspension in saline): 94 % of control and 103 % of control
- T/C (dose: 16.0 mg/kg/injection, schedule: Q01DX005 (ip), vehicle: suspension in saline): 104 % of control and 106 % of control
- T/C (dose: 32.0 mg/kg/injection, schedule: Q01DX005 (ip), vehicle: suspension in saline): 102 % of control and 108 % of control
